The text below walks through data of ChEMBL document CHEMBL1201862, “PubChem BioAssay data set” (2004).

Among the test systems are UO-31; OVCAR-4; HCC 2998; 786-0; HCT-116; CCRF-CEM; HOP-62; SR; SNB-75; SN12C; HL-60; CAKI-1; UACC-257; HCT-15; COLO 205; SK-OV-3; SW-620; MDA-N.
Holding throughout (assay): growth of human tumour cells (NCI), 48 h

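Results reflect a 48-hour exposure of cells in 96-well plates to compound at five concentrations. GI50 marks 50% less growth.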 Active and inactive are the calls of the source. Cut-off read from the data, not from the text of the source: active = GI50 up to about 1.1 µM and inactive = higher.

On to `O=C1CCCCC1S(=O)(=O)c1ccccc1` (stereo not drawn), for which the GI50 with UO-31, with OVCAR-4, in the experiment on HCC 2998, in the experiment with 786-0, in the experiment with HCT-116 and in the experiment with CCRF-CEM was > 100 µM (inactive) in each case. The GI50 with HOP-62, with SR, in the experiment on SNB-75, in the experiment with SN12C, in the experiment with HL-60 and in the experiment on CAKI-1 was > 100 µM (inactive) each time. Besides, the GI50 in the experiment on UACC-257 is > 100 µM (inactive); in the experiment with HCT-15 it was greater than 100 µM; in the experiment on COLO 205, > 100 µM (inactive); in the experiment on SK-OV-3 it was > 100 µM (inactive); in the experiment with SW-620 it was > 100 µM (inactive).

As to `CCCCCCCCCCCCCCCCOCC(CN(C)CCN(C)C)OCCCCCCCCCCCCCCCC` (stereo not drawn), the GI50 in the experiment with UO-31, in the experiment on OVCAR-4, in the experiment with HCC 2998, in the experiment on 786-0, in the experiment on HCT-116 and with CCRF-CEM was > 100 µM (inactive) each time. Besides, the GI50 with HOP-62, with SR, in the experiment with SNB-75, in the experiment on SN12C, in the experiment on HL-60 and in the experiment on CAKI-1 was > 100 µM (inactive) in each case. The GI50 with UACC-257 was > 100 µM (inactive); with HCT-15, greater than 100 µM; with COLO 205 it was > 100 µM (inactive); in the experiment with SK-OV-3, > 100 µM (inactive); in the experiment with SW-620 it was > 100 µM (inactive).

For `NC(CC(=O)OCc1ccccc1)C(=O)OCc1ccccc1` (stereo not drawn), the GI50 in the experiment with UO-31 is 69.5 µM (inactive); in the experiment with HCC 2998, 33.2 µM (inactive); in the experiment on MDA-N it was > 100 µM (inactive); in the experiment on 786-0, > 100 µM (inactive); in the experiment on HCT-116, > 100 µM (inactive); in the experiment on CCRF-CEM, > 100 µM (inactive). For the same molecule, the GI50 is > 100 µM (inactive) in the experiment with HOP-62; > 100 µM (inactive) in the experiment with SR; > 100 µM (inactive) with SN12C; 63.1 µM (inactive) in the experiment on CAKI-1; > 100 µM (inactive) in the experiment with UACC-257; greater than 100 µM in the experiment on HCT-15. Further, the GI50 in the experiment on COLO 205 and with SW-620 was > 100 µM (inactive) in each case.

For `O=C(c1ccc(Cl)cc1)c1ccc(OCCCOc2ccc(C(=O)c3ccc(Cl)cc3)cc2Cl)c(Cl)c1`, the GI50 with OVCAR-4, with HCC 2998, with 786-0, in the experiment on HCT-116, in the experiment on CCRF-CEM and in the experiment with HOP-62 was > 100 µM (inactive) in each case. For the same molecule, the GI50 with SR, with SNB-75, in the experiment on SN12C, in the experiment with HL-60, in the experiment on CAKI-1 and in the experiment with UACC-257 was > 100 µM (inactive) each time. Further, the GI50 in the experiment with HCT-15 was greater than 100 µM; in the experiment on COLO 205 it was > 100 µM (inactive); in the experiment with SK-OV-3 it was > 100 µM (inactive); in the experiment with SW-620 it was > 100 µM (inactive).

Turning to `C/C(=N\N=C(N)N)c1sc(-c2nc(C)c(/C(C)=N/N=C(N)N)s2)nc1C`, the GI50 with UO-31 is > 91 µM (inactive); in the experiment on OVCAR-4 it was > 85.5 µM (inactive); in the experiment on HCC 2998, > 100 µM (inactive); in the experiment on 786-0 it was > 47.9 µM (inactive); in the experiment on HCT-116, > 100 µM (inactive); in the experiment on CCRF-CEM, > 60.7 µM (inactive). Also, the GI50 in the experiment with HOP-62 was > 100 µM (inactive); in the experiment with SR, > 45.6 µM (inactive); with SNB-75 it was > 84.3 µM (inactive); with SN12C, > 100 µM (inactive); in the experiment with HL-60, 24.4 µM (inactive); with CAKI-1 it was > 100 µM (inactive). The GI50 in the experiment with UACC-257 is > 100 µM (inactive); in the experiment with HCT-15, greater than 46 µM; in the experiment on COLO 205 it was > 52.5 µM (inactive); in the experiment on SK-OV-3, > 100 µM (inactive); in the experiment with SW-620 it was > 100 µM (inactive).

For the molecule `C=C(C)C1Cc2c(cc(OC)c3c(=O)c4ccccc4n(C)c23)O1` (stereo not drawn), the GI50 in the experiment on UO-31, in the experiment with OVCAR-4, in the experiment on HCC 2998, in the experiment on 786-0, in the experiment with HCT-116 and in the experiment on CCRF-CEM was > 100 µM (inactive) each time. Besides, the GI50 in the experiment with HOP-62 is > 100 µM (inactive); in the experiment with SR, > 100 µM (inactive); with SNB-75, 70 µM (inactive); in the experiment with SN12C, > 100 µM (inactive); in the experiment with HL-60, > 100 µM (inactive); in the experiment on CAKI-1, > 100 µM (inactive). Moreover, the GI50 with UACC-257 is > 100 µM (inactive); with HCT-15, 83.6 µM; with COLO 205 it was > 100 µM (inactive); in the experiment with SK-OV-3, > 100 µM (inactive); in the experiment with SW-620, > 100 µM (inactive).

Take `COc1cc2c(cc1OC)[C@H]1C(COC(=O)Nc3ccccc3)CN1CC2` (stereo partly drawn): the GI50 with UO-31 was > 100 µM (inactive); in the experiment on OVCAR-4, > 100 µM (inactive); in the experiment with HCC 2998, 67.6 µM (inactive); in the experiment with 786-0 it was > 100 µM (inactive); in the experiment with HCT-116, > 100 µM (inactive); in the experiment on CCRF-CEM, > 100 µM (inactive). In addition, the GI50 was > 100 µM (inactive) in the experiment with HOP-62; 75.3 µM (inactive) with SR; 18.6 µM (inactive) in the experiment on SNB-75; > 100 µM (inactive) in the experiment on SN12C; > 100 µM (inactive) with HL-60; > 100 µM (inactive) in the experiment with CAKI-1. Further, the GI50 in the experiment on HCT-15 was greater than 100 µM; in the experiment on COLO 205, > 100 µM (inactive); with SK-OV-3 it was > 100 µM (inactive); with SW-620, > 100 µM (inactive).

As for `COc1ccc(NC(=S)NN=C(C)c2cccc(C(C)=NNC(=S)Nc3ccc(OC)cc3)n2)cc1`, the GI50 was 6.65 µM (inactive) with UO-31; 7.13 µM (inactive) in the experiment on OVCAR-4; 37.7 µM (inactive) in the experiment on HCC 2998; 14.7 µM (inactive) in the experiment with 786-0; 11.6 µM (inactive) in the experiment on HCT-116; 3.33 µM (inactive) with CCRF-CEM. Also, the GI50 was 26.1 µM (inactive) in the experiment on HOP-62; 3.13 µM (inactive) in the experiment with SR; 3.9 µM (inactive) with SNB-75; > 100 µM (inactive) in the experiment on SN12C; 20.5 µM (inactive) with HL-60; 11.4 µM (inactive) in the experiment on CAKI-1. Also, the GI50 with UACC-257 was > 100 µM (inactive); with HCT-15, 10.9 µM; in the experiment with COLO 205 it was 4.45 µM (inactive); with SK-OV-3, 21.4 µM (inactive); in the experiment with SW-620, 64.7 µM (inactive).

Consider `COC(=O)C(C(=O)C(=O)Nc1ccc(OC)cc1[N+](=O)[O-])c1nc2cc(C)c(C)cc2nc1O` (stereo not drawn), for which the GI50 in the experiment on UO-31, in the experiment with OVCAR-4, in the experiment with HCC 2998, with 786-0, in the experiment with HCT-116 and in the experiment on CCRF-CEM was > 100 µM (inactive) in each case. The GI50 in the experiment on HOP-62, in the experiment on SR, with SNB-75, in the experiment with SN12C, in the experiment on HL-60 and in the experiment with CAKI-1 was > 100 µM (inactive) in each case. Besides, the GI50 is > 100 µM (inactive) with UACC-257; greater than 100 µM with HCT-15; > 100 µM (inactive) in the experiment with COLO 205; > 100 µM (inactive) with SK-OV-3; > 100 µM (inactive) in the experiment with SW-620.
